# Patent US20250368687A1, “SHORT SYNTHETIC PEPTIDES AND USES THEREOF IN THE TREATMENT OF ENTEROVIRUS INFECTION” (CITY UNIVERSITY OF HONG KONG, priority 2024, published 2025)
# What was measured:
# Type in all cases: cell-based
# EV-A71 IRES activity = assay: Dual-luciferase IRES reporter assay in RD cells; conditions: 2 μM for 2 h, RD cells co-transfected with 2Apro and pIRES reporter plasmids 24 h
# Description: FIGS. 6A-6C Ser78 phosphorylation-deficient Hsp27 suppresses the viral IRES activity. (FIG. 6A) RD cells were pretreated with 2 μM SB203580 for 2 h, then co-transfected with a 2A^pro-expressing plasmid (200 ng) and pIRES reporter plasmid (200 ng) for 24 h, then the luciferase activity was measured. (FIG. 6B) HEK 293T cells were co-transfected with Hsp27 (WT, 3A, S15A, S78A, and S82A) plasmid (800 ng), pIRES reporter plasmid (200 ng) and 2A^pro-expressing plasmid (200 ng) for 24 h, then the luciferase activity was measured. (FIG. 6C) HEK 293T cells were co-transfected with Hsp27 (WT, 3A, S15A, S78A, 3D S15D, and S78D) plasmid (800 ng), pIRES reporter plasmid (200 ng) and 2A^C110A-expressing plasmid (200 ng) for 24 h, then the luciferase activity was measured. Statistical analyses were carried out using Student's t-test. *: p<0.05, **: p<0.01, ***: p<0.001. Data are expressed as mean ±SD.
# HEK 293T cells were seeded in 24-wells, and then co-transfected with plasmids to simultaneously express 2A^pro (200 ng), pIRES reporter (200 ng), and the wild-type Hsp27 or its mutants (800 ng). […] The Renilla luciferase (RLuc) and Firefly luciferase (FLuc) activity were determined by using a dual-luciferase reporter assay (Promega) according to the manufacturer's instructions in a Lumat LB9507 bioluminometer. […]
# EV-A71 [1] = assay: EV-A71-induced cytopathic effect (CPE) on RD cells; conditions: EV-A71 MOI 1 for 12 hours
# Description: FIGS. 10A-10K. Peptide S78 inhibited EV-A71 replication and propagation. (FIG. 10A) RD cells were pre-treated with peptides S78 or for 2 hours and infected with EV-A71 at the MOI of 10 for 6 hours. Cell lysates were collected for western blot assay. Hsp27 phosphorylation on Ser 15, 78, 82 were detected by specific antibodies. β-Actin were detected as internal control. (FIG. 10B) Densitometric analysis of FIG. 9A. (FIG. 10C) HEK 293T cells were pre-treated with peptides S78 or S78A at the concentration of 25 μM for 2 hours and then co-transfected with Hsp27-WT plasmid (800 ng), pIRES reporter plasmid (200 ng) and 2A^pro-expressing plasmid or 2AC110A-expressing plasmid (200 ng) for 24 h, then the luciferase activity was measured. (FIG. 10D-10E) RD cells were treated with peptides S78 or S78A and then infected with EV-A71. EV-A71 VP1 were detected. (FIG. 10F) RD cells were treated with peptides and then infected with EV-A71 at the MOI of 1 for 12 hours. The EV-A71-induced CPE was captured. (FIG. 10G-10H) Intracellular viral RNA was extracted and quantified by qPCR. (FIG. 10I) Densitometric analysis FIG. 9D-E. (FIG. 10J) RD cells were treated with peptides S78 or and then infected with EV-A71 at the MOI of 1 for 12 hours. Extracellular viral RNA was extracted and quantified by qPCR. (FIG. 10K) Viral titration was calculated by TCID50. […] Data are expressed as mean ±SD. […]
# EV-A71 [2] = assay: Virus titration (TCID50); conditions: TCID50, RD cells (FIG. 10K)
# Description: FIGS. 10A-10K. Peptide S78 inhibited EV-A71 replication and propagation. (FIG. 10A) RD cells were pre-treated with peptides S78 or for 2 hours and infected with EV-A71 at the MOI of 10 for 6 hours. Cell lysates were collected for western blot assay. Hsp27 phosphorylation on Ser 15, 78, 82 were detected by specific antibodies. β-Actin were detected as internal control. (FIG. 10B) Densitometric analysis of FIG. 9A. (FIG. 10C) HEK 293T cells were pre-treated with peptides S78 or S78A at the concentration of 25 μM for 2 hours and then co-transfected with Hsp27-WT plasmid (800 ng), pIRES reporter plasmid (200 ng) and 2A^pro-expressing plasmid or 2AC110A-expressing plasmid (200 ng) for 24 h, then the luciferase activity was measured. (FIG. 10D-10E) RD cells were treated with peptides S78 or S78A and then infected with EV-A71. EV-A71 VP1 were detected. (FIG. 10F) RD cells were treated with peptides and then infected with EV-A71 at the MOI of 1 for 12 hours. The EV-A71-induced CPE was captured. (FIG. 10G-10H) Intracellular viral RNA was extracted and quantified by qPCR. (FIG. 10I) Densitometric analysis FIG. 9D-E. (FIG. 10J) RD cells were treated with peptides S78 or and then infected with EV-A71 at the MOI of 1 for 12 hours. Extracellular viral RNA was extracted and quantified by qPCR. (FIG. 10K) Viral titration was calculated by TCID50. […] Data are expressed as mean ±SD.
# FIGS. 11A-11G Inhibition of EV-A71 Protein Translation and Viral Reproduction by peptide S82A. (FIG. 11A) HEK 293T cells were pre-treated with peptides NC, S78, S78A, S82A, or S78-3A at the concentration of 25 μM for 2 hours and then co-transfected with Hsp27-WT plasmid (800 ng), pIRES reporter plasmid (200 ng) and 2A^pro-expressing plasmid for 24 h, then the luciferase activity was measured. […] Intracellular viral RNA was extracted and quantified by qPCR. […] EV-A71 VP1 were detected. β-Actin was detected as an internal control. (FIG. 11F) Densitometric analysis of the EV-A71 VP1 level in FIG. S7C-E was quantified and normalized with β-Actin using ImageJ. […] Viral titration was calculated. […] Data are expressed as mean ±SD. […]
# RD cells = assay: CCK-8 assay; conditions: data not shown
# Description: RD cells were seeded in 96-well cell plates (1×10^4/well) and placed in the 5% CO2 incubator for 1 day. Then the cells were treated with peptides for 2 days. 90 μl medium and 10 μl of CCK-8 (BioSharp, BS350B) was added to each well of the 96-well plate, which were incubated at 37° C. for 1 h. A microplate reader (BioTek, Synergy H1) was used to measure the OD value of each well at 450 nm.
Molecule,reduction of IRES activity (EV-A71 IRES activity) [%],protection from EV-A71-induced CPE (EV-A71 [1]),decrease of viral titer (EV-A71 [2]) [folds],CC50 (in words) (RD cells)
"C[S+]([O-])c1ccc(-c2nc(-c3ccncc3)c(-c3ccc(F)cc3)[nH]2)cc1 (stereo not drawn) [SB203580, reference compound]",32,–,–,–
Ac-RKKRRQRRRAYSRALARQLSS-NH2 [S78A],–,mild protection,50,–
Ac-RKKRRQRRRAYSRALSRQLSS-NH2 [S78],–,dramatically protected,450,–
"Ac-RKKRRQRRRYSREANQPKPSPKRESGEE-NH2 [NC, reference compound]",–,–,–,high
